Tested on: not given
Assay: not given
Settings: phase II trial; altered behavior, delusion, hallucinations, extreme emotions, excited motor activity, incoherent speech; cited from earlier work

Structure (SMILES)	activity on positive symptoms of schizophrenia
CC(=O)N(C)C1(c2ccccc2)CCN(CCC[C@]2(c3ccc(Cl)c(Cl)c3)CCCN(C(=O)c3ccccc3)C2)CC1 [SR 142,801, Osanetant]	active

Same assay, conditions: phase II trial; depression, anhedonia, social isolation or memory and attention deficits; cited from earlier work

Structure (SMILES)	activity in the treatment of negative symptoms
CC(=O)N(C)C1(c2ccccc2)CCN(CCC[C@]2(c3ccc(Cl)c(Cl)c3)CCCN(C(=O)c3ccccc3)C2)CC1 [SR 142,801, Osanetant]	inactive

Biological target: T1, recombinant human NK3 receptor (Homo sapiens, UniProt P29371)
T1 construct: expressed in transfected cells; host or cells: HEK293 cells (transient expression), membranes
T1 sequence (P29371 1-465): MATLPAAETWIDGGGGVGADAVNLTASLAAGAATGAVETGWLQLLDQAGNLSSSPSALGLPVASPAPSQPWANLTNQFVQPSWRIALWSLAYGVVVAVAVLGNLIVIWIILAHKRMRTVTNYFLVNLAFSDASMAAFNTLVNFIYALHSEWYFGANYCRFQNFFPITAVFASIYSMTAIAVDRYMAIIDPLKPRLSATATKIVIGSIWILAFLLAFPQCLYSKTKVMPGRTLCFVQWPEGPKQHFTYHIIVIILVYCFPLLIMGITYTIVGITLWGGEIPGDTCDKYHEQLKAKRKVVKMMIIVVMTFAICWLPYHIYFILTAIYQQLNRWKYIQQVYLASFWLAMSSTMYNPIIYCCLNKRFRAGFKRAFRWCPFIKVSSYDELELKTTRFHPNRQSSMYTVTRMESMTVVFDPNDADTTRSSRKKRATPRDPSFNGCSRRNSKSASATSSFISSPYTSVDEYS
Assay: [3H]SR142801 competition binding assay
Settings: hNK3 receptor binding, [3H]SR142801, membranes from HEK293 cells transiently expressing recombinant human NK3 receptor
Description: [^3H]SR142801 competition binding assay
hNK3 receptor binding experiment were performed using [^3H]SR142801 (Catalog No. TRK1035, specific activity: 74.0 Ci/mmol, Amersham, GE Healthcare UK limited, Buckinghamshire, UK) and membrane isolated from HEK293 cells transiently expressing recombinant human NK3 receptor. After thawing, the membrane homogenates were centrifuged at 48,000×g for 10 min at 4° C., the pellets were resuspended in the 50 mM Tris-HCl, 4 mM MnCl2, 1 μM phosphoramidon, 0.1% BSA binding buffer at pH 7.4 to a final assay concentration of 5 μg protein/well. […] At the end of the incubation, membranes were filtered onto unitfilter (96-well white microplate with bonded GF/C filter preincubated 1 h in 0.3% PEI+0.3% BSA, Packard BioScience, Meriden, Conn.) with a Filtermate 196 harvester (Packard BioScience) and washed 4 times with ice-cold 50 mM Tris-HCl, pH 7.4 buffer. Nonspecific binding was measured in the presence of 10 μM SB222200 for both radioligands. The radioactivity on the filter was counted (5 min) on a Packard Top-count microplate scintillation counter with quenching correction after addition of 45 μl of microscint 40 (Canberra Packard S. A., Zürich, Switzerland) and shaking for 1 h. Inhibition curves were fitted according to the Hill equation: y=100/(1+(x/IC50)^nH), where nH=slope factor using Excel-fit 4 software (Microsoft). IC50 values were derived from the inhibition curve and the affinity constant (Ki) values were calculated using the Cheng-Prussoff equation Ki=IC50/(1+[L]/KD) where [L] is the concentration of radioligand and KD is its dissociation constant at the receptor, derived from the saturation isotherm. All experiments were performed in duplicate and the mean±standard error (SEM) of the individual Ki values was calculated.

Structure (SMILES)	Ki
CC(=O)Nc1ccc(C(=O)N2C[C@H](c3ccc(Cl)c(Cl)c3)[C@@H](N(C)Cc3ccc(C(F)(F)F)c(F)c3)C2)cc1 (racemic) [Example 61, N-(4-{(3SR,4RS)-3-(3,4-Dichloro-phenyl)-4-[(3-fluoro-4-trifluoromethyl-benzyl)-methyl-amino]-pyrrolidine-1-carbonyl}-phenyl)-acetamide]	37.3 nM
CN(Cc1ccc(C(F)(F)F)c(F)c1)[C@H]1CN(C(=O)c2ccc(N3CCCS3(=O)=O)cc2)C[C@@H]1c1ccc(Cl)c(Cl)c1 (racemic) [Example 42, {(3SR,4RS)-3-(3,4-Dichloro-phenyl)-4-[(3-fluoro-4-trifluoromethyl-benzyl)-methyl-amino]-pyrrolidin-1-yl}-[4-(1,1-dioxo-1-6-isothiazolidin-2-yl)-phenyl]-methanone]	33.5 nM
CN(Cc1ccc(C(F)(F)F)c(F)c1)[C@H]1CN(C(=O)c2ccc3nc[nH]c3c2)C[C@@H]1c1ccc(Cl)c(Cl)c1 (racemic) [Example 60, (3H-Benzoimidazol-5-yl)-{(3SR,4RS)-3-(3,4-dichloro-phenyl)-4-[(3-fluoro-4-trifluoromethyl-benzyl)-methyl-amino]-pyrrolidin-1-yl}-methanone]	17.3 nM
CN(Cc1ccc(C(F)(F)F)c(F)c1)[C@H]1CN(C(=O)c2ccc(N3CCOCC3)cc2)C[C@@H]1c1ccc(Cl)c(Cl)c1 (racemic) [Example 38, {(3SR,4RS)-3-(3,4-Dichloro-phenyl)-4-[(3-fluoro-4-trifluoromethyl-benzyl)-methyl-amino]-pyrrolidin-1-yl}-(4-morpholin-4-yl-phenyl)-methanone]	9 nM
CN(Cc1ccc(C(F)(F)F)c(F)c1)[C@H]1CN(C(=O)c2ccc(-n3cccn3)nc2)C[C@@H]1c1ccc(Cl)c(Cl)c1 (racemic) [Example 30, {(3SR,4RS)-3-(3,4-Dichloro-phenyl)-4-[(3-fluoro-4-trifluoromethyl-benzyl)-methyl-amino]-pyrrolidin-1-yl}-(6-pyrazol-1-yl-pyridin-3-yl)-methanone]	2.8 nM
CN(Cc1ccc(C(F)(F)F)c(F)c1)[C@H]1CN(C(=O)c2ccc(C#N)cc2F)C[C@@H]1c1ccc(Cl)c(Cl)c1 (racemic) [Example 19, 4-{(3SR,4RS)-3-(3,4-Dichloro-phenyl)-4-[(3-fluoro-4-trifluoromethyl-benzyl)-methyl-amino]-pyrrolidine-1-carbonyl}-3-fluoro-benzonitrile]	12.9 nM
Cc1cc(C(=O)N2C[C@H](c3ccc(Cl)c(Cl)c3)[C@@H](N(C)Cc3ccc(C(F)(F)F)c(F)c3)C2)ccn1 (racemic) [Example 33, {(3SR,4RS)-3-(3,4-Dichloro-phenyl)-4-[(3-fluoro-4-trifluoromethyl-benzyl)-methyl-amino]-pyrrolidin-1-yl}-(2-methyl-pyridin-4-yl)-methanone]	11.1 nM
CN(Cc1ccc(C(F)(F)F)c(F)c1)[C@H]1CN(C(=O)c2ccc(-n3cncn3)cc2)C[C@@H]1c1ccc(Cl)c(Cl)c1 (racemic) [Example 40, {(3SR,4RS)-3-(3,4-Dichloro-phenyl)-4-[(3-fluoro-4-trifluoromethyl-benzyl)-methyl-amino]-pyrrolidin-1-yl}-(4-[1,2,4]triazol-1-yl-phenyl)-methanone]	2.7 nM
CN(Cc1ccc(C(F)(F)F)c(F)c1)[C@H]1CN(C(=O)c2ccc(N3CCS(=O)(=O)CC3)nc2)C[C@@H]1c1ccc(Cl)c(Cl)c1 (racemic) [Example 64, {(3SR,4RS)-3-(3,4-Dichloro-phenyl)-4-[(3-fluoro-4-trifluoromethyl-benzyl)-methyl-amino]-pyrrolidin-1-yl}-[6-(1,1-dioxo-1-6-thiomorpholin-4-yl)-pyridin-3-yl]-methanone]	2 nM
CN(Cc1ccc(C(F)(F)F)cc1)[C@H]1CN(C(=O)c2ccc(C#N)cc2)C[C@@H]1c1ccc(Cl)c(Cl)c1 (racemic) [Example 68, 4-{(3SR,4RS)-3-(3,4-Dichloro-phenyl)-4-[methyl-(4-trifluoromethyl-benzyl)-amino]-pyrrolidine-1-carbonyl}-benzonitrile]	14.6 nM
CN(Cc1ccc(C(F)(F)F)c(F)c1)[C@H]1CN(C(=O)c2ccc(-c3cnco3)cc2)C[C@@H]1c1ccc(Cl)c(Cl)c1 (racemic) [Example 67, {(3SR,4RS)-3-(3,4-Dichloro-phenyl)-4-[(3-fluoro-4-trifluoromethyl-benzyl)-methyl-amino]-pyrrolidin-1-yl}-(4-oxazol-5-yl-phenyl)-methanone]	4.5 nM
Cc1cc(C(=O)N2C[C@H](c3ccc(Cl)c(Cl)c3)[C@@H](N(C)Cc3ccc(C(F)(F)F)c(F)c3)C2)ccc1C#N (racemic) [Example 23, 4-{(3SR,4RS)-3-(3,4-Dichloro-phenyl)-4-[(3-fluoro-4-trifluoromethyl-benzyl)-methyl-amino]-pyrrolidine-1-carbonyl}-2-methyl-benzonitrile]	6.6 nM
CN(Cc1ccc(C(F)(F)F)c(F)c1)[C@H]1CN(C(=O)c2ccc(O)nc2)C[C@@H]1c1ccc(Cl)c(Cl)c1 (racemic) [Example 48, {(3SR,4RS)-3-(3,4-Dichloro-phenyl)-4-[(3-fluoro-4-trifluoromethyl-benzyl)-methyl-amino]-pyrrolidin-1-yl}-(6-hydroxy-pyridin-3-yl)-methanone]	47.8 nM
CN(Cc1ccc(C(F)(F)F)c(F)c1)[C@H]1CN(C(=O)c2ccc3c(c2)OCO3)C[C@@H]1c1ccc(Cl)c(Cl)c1 (racemic) [Example 17, Benzo[1,3]dioxol-5-yl-{(3SR,4RS)-3-(3,4-dichloro-phenyl)-4-[(3-fluoro-4-trifluoromethyl-benzyl)-methyl-amino]-pyrrolidin-1-yl}-methanone]	38.3 nM

From patent publication US8293770B2, “Pyrrolidine derivatives as NK-3 receptor antagonists” (Hoffmann-La Roche Inc., priority 2008, dated 2012)
